From ChEMBL document CHEMBL1201862, “PubChem BioAssay data set” (2004) come the findings set out here.

Molecules are shown by their SMILES. Activity calls are given as the source filed them.

The target in assay [1] is T1, Bcl-2-related protein A1 (Mus musculus, UniProt Q07440).
T1 sequence (Q07440 whole entry): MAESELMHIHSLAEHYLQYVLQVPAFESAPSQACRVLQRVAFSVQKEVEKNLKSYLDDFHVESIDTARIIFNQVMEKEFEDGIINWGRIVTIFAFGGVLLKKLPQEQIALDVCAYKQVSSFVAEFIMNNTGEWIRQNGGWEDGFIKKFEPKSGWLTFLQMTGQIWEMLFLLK
In words: displacement of Bid BH3 peptide from Bfl-1 – biochemical, fluorescence polarization, FITC-Bid, mouse, primary screen (AID 432). For orientation: In fluorescence polarisation assays a small probe gives low polarisation when free and higher when bound to something large.

In assay [2] the target is T1, Bcl-2-related protein A1. The experiment in a line: small-molecule antagonists of Bfl-1/BH3 interaction – biochemical, TR-FRET, mouse Bfl-1, confirmation (AID 621).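 Note: TR-FRET binding of GST-Bfl-1 to FITC-labelled Bid peptide via terbium antibody.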
Assay [3] is described as follows: viability loss in Vero cells – cytotoxicity control for Vif-APOBEC3G degradation inhibitor project, dose response (AID 1117358). The class given is functional. The note with it: Vero.
Assay [4] has as its target Genome polyprotein (dengue virus type 2, UniProt P29990). In words: flavivirus cap methylation enzyme inhibition – biochemical, confirmation dose response, primary screen (AID 588689). The class given is functional.
Assay [5] addresses Ras and Rab interactor 1/Tyrosine-protein kinase ABL1 (Homo sapiens, UniProt P00519+Q13671). The class given is functional.
For assay [6], the target named is T2, Mannose-6-phosphate isomerase (Homo sapiens, UniProt P34949).
T2 sequence (P34949 whole entry): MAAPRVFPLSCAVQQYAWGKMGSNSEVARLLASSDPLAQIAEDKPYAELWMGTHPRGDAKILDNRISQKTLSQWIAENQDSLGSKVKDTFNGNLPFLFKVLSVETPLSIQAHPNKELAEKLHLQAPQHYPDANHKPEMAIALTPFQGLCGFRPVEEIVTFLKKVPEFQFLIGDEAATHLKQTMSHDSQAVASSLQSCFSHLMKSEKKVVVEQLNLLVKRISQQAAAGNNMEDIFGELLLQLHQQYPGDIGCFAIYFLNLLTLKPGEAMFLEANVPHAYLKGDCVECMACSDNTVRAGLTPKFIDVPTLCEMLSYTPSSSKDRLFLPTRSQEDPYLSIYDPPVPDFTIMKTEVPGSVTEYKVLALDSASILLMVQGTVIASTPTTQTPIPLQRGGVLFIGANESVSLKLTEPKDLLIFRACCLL
The experiment in a line: MPI inhibition at elevated mannose 6-phosphate – biochemical, fluorescence intensity, high mannose 6-phosphate, primary screen (AID 1220).

For assay [7], the target named is T2, Mannose-6-phosphate isomerase. The experiment in a line: MPI enzyme activity inhibition – biochemical, fluorescence intensity, coupled assay, primary screen (AID 1209).
For assay [8], the system named is H4. In words: Luminescence Cell-Based Dose Response HTS to Identify Activators of 5'UTR Stem-Loop Driven Prion Protein mRNA Translation in H4 Neuroglioblastoma Cells. [Related pubchem assays: 1829 (Project Summary), 1814 (Primary HTS)]. The class given is functional. The note with it: Homo sapiens.
Assay [9] can be described thus: Luminescence Cell-Based Dose Response HTS to Identify Activators of Luciferase Translation or Activity in H4 […] Cells. [Related pubchem assays: 1829 (Project Summary), 1814 (Primary HTS)]. The format is functional.
For assay [10], the target named is Heat shock protein HSP 90-alpha (Homo sapiens, UniProt P07900). In words: Luminescence-based dose response biochemical high throughput screening assay for inhibitors of the Heat Shock Protein 90 (HSP90). [Related pubchem assays: 1831 (Summary AID.), 1846 (Confirmation screen.), 1789 (Primary screen.)].
Assay [11] can be described thus: P. falciparum Dd2 growth inhibitors, dose response, SYBR Green, cherry-picked samples (AID 1159567). The class given is functional, cell-based.
Assay [12] is described as follows: toxicity to human HepG2 hepatoma cells – cell-based, plate reader, dry powder samples, cytotoxicity control, dose response (AID 1159569).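 Note: inhibitor potency with signal falling toward the positive control level.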 The format is functional.
The nature of assay [13]: Dd2 malaria parasite growth inhibition potency – SYBR Green, dry powder samples, dose response (AID 1159566).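 Note: potency for growth inhibition with lower SYBR green DNA signal.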 The class given is functional, cell-based.
The nature of assay [14]: growth inhibition of yeast DHODH-expressing 3D7 parasites – SYBR Green, dry powder samples, dose response (AID 1159570).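 Note: parasite growth measured after 72 hours of compound exposure.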 The format is functional, cell-based.
Assay [15] is described as follows: growth inhibition of PfATP4-mutant resistant parasites – NITD609-resistant line, SYBR Green, dry powder, dose response (AID 1159571).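 Note: parasites synchronized at ring stage by sorbitol before testing.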 The class given is functional, cell-based.
Assay [16] in a line: Plasmodium falciparum Dd2 Sybr green parasite growth Measured in Cell-Based and Microorganism Combination System Using Plate Reader - 2153-01_Inhibitor_Dose_DryPowder_Activity_Set10. The format is functional.
The target of assay [17] is Genome polyprotein (Hepatitis C virus, UniProt Q2Q167). In words: disruption of hepatitis C core self-association – biochemical, TR-FRET, dose response (AID 2159).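 Note: blocks dimerization of HCV core protein measured by TR-FRET between tagged core106 pairs.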 On the set-up: species or system Hepacivirus hominis. Background: In TR-FRET formats the signal depends on donor and acceptor labels being close together.
Genome polyprotein (Hepatitis C virus, UniProt Q2Q167), sequence (Q2Q167 whole entry): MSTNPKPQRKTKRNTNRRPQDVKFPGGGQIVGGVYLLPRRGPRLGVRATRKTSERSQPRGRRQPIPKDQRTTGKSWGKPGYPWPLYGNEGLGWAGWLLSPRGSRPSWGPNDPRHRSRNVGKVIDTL
The test system of assay [18] is HEK293. The experiment in a line: inhibition of NOD1-driven NF-kB reporter – cell-based, luminescence, uHTS, primary screen (AID 1578). The note with it: Homo sapiens. The class given is functional.
Assay [19] concerns Streptococcus. In words: GAS UMAA2166 growth inhibition – luminescence, BacTiterGlo, counter-screen for streptokinase expression inhibitor project, dose response (AID 1915).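 Note: potency for reduction of bacterial viability or growth.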 The class given is functional, organism-based. (In general: Counterscreens check selectivity or assay interference.)
Assay [20] relates to HEK293. In words: cells. The class given is functional, cell-based. The note with it: Homo sapiens.
The subject of assay [21] is HEK293. In words: cells. The class given is functional, cell-based. The following applies: Homo sapiens. This is another data set of the same source.
Assay [22] is described as follows: MIN6 cell viability loss – mouse insulinoma, cytotoxicity control, dose response (AID 2122).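 Note: confirmatory high-throughput counterscreen run to flag cytotoxic compounds.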 The class given is functional.
Assay [23] is described as follows: decrease of insulin promoter-GFP reporter – imaging, high-content screening, mouse beta cells (AID 1628). The class given is functional. The following applies: MIN6.
For assay [24], the system named is HEK293. In words: NOD2 signaling inhibitors in MDP-stimulated cells, cell-based, uHTS, luminescence (AID 2001). The format is functional. The following applies: Homo sapiens.
Assay [25] relates to Streptococcus sp. 'group A'. In words: Streptococcus pyogenes SK(-)GAS viability under kanamycin – luminescence, BacTiterGlo, confirmation, counter-screen for streptokinase expression inhibitor project, dose response (AID 1900). The format is functional, organism-based.

Genome polyprotein (dengue virus type 2, UniProt P29990), sequence (P29990 2492-3391 limits assumed): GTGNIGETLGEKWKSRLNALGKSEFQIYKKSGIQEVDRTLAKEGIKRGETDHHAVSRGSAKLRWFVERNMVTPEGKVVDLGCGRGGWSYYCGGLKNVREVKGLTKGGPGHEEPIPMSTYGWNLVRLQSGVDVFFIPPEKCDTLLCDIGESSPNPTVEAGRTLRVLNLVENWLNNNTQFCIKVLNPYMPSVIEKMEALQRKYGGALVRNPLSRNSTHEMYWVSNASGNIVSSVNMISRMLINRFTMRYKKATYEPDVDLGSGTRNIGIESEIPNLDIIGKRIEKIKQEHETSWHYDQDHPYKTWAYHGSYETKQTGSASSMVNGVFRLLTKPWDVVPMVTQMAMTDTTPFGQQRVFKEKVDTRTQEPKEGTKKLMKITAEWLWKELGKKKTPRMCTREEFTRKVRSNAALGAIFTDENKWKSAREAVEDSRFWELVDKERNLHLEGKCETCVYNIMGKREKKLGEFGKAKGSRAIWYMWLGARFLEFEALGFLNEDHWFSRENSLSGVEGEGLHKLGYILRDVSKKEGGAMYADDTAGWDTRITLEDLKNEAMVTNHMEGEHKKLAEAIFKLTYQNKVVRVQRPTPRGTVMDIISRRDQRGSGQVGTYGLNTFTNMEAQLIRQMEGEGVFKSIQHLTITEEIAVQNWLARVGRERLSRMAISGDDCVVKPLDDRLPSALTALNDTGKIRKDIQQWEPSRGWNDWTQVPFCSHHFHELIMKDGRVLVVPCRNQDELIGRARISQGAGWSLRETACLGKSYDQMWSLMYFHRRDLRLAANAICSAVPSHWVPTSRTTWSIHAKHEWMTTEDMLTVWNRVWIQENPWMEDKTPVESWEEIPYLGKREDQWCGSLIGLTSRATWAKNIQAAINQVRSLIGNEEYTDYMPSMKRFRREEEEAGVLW
Ras and Rab interactor 1/Tyrosine-protein kinase ABL1, sequence (P00519 whole entry): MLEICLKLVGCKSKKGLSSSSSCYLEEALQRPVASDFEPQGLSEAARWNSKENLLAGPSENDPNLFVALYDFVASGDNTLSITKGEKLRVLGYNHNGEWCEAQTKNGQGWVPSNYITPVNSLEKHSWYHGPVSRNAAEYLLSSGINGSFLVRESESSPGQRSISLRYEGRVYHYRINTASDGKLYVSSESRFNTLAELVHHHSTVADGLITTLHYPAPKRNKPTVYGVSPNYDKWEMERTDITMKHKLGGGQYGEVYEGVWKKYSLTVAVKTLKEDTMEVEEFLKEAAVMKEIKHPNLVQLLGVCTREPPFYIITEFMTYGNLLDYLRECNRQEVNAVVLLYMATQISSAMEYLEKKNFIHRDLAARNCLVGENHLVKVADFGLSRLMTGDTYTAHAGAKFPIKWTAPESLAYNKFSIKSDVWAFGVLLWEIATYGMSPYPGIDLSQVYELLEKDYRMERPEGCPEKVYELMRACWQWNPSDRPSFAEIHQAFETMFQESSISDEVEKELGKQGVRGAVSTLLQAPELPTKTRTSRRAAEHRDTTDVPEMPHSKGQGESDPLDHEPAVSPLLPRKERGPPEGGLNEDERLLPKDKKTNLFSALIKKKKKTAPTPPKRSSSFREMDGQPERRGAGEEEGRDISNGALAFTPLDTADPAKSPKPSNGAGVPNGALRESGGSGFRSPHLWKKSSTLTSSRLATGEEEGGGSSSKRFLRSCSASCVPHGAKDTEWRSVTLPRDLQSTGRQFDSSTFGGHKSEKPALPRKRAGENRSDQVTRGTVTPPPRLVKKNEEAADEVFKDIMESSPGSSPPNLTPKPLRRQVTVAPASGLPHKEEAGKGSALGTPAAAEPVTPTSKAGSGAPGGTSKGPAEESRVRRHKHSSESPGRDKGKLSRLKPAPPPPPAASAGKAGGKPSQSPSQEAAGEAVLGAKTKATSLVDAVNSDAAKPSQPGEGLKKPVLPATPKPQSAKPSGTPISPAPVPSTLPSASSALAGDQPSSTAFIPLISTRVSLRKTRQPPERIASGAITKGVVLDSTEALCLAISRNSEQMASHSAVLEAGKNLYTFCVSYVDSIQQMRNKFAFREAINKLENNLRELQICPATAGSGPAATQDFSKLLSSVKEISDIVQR
Ras and Rab interactor 1/Tyrosine-protein kinase ABL1, sequence (Q13671 whole entry): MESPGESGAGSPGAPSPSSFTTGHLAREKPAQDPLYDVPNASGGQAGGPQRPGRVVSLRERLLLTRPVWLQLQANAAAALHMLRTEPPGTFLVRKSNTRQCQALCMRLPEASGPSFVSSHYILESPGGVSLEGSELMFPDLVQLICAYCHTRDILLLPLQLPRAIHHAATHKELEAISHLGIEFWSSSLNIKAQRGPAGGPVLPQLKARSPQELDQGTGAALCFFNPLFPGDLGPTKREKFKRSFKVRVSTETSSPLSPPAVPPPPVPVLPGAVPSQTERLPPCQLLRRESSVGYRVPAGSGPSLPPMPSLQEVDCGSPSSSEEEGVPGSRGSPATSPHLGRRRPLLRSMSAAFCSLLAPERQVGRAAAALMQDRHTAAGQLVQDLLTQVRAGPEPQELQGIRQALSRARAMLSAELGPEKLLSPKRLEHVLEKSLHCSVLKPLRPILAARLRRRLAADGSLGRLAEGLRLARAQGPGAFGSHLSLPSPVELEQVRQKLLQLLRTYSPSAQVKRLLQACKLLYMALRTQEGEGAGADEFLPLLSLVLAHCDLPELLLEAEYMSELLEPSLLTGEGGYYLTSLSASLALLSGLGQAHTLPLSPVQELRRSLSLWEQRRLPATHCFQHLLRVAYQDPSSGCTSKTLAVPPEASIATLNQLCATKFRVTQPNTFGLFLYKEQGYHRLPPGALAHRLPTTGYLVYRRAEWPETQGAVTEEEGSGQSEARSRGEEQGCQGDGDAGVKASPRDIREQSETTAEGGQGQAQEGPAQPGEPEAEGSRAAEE

On to `C1=C(c2ccc(-c3ccccc3)cc2)Nc2ncnn2C1c1ccco1` (stereo not given), for which the IC50 in assay [1] and in assay [2] was > 100 µM (not active) throughout.

As to `CSc1cccc(-n2cc(-c3ccc4c(c3)OCO4)nc2O)c1`, the CC50 in assay [3] was > 40 µM (active).

`Oc1ccc(/C=N/N2CCOCC2)c(O)c1O`: the IC50 was 45 µM (active) in assay [4], > 73.5 µM (inactive) in assay [5], 10.3 µM (active) in assay [6] and 11.6 µM (active) in assay [7].

Regarding `CCc1ccc(OCc2ccc(C(=O)OC)o2)cc1`, the EC50 in assay [8] is 2.81 µM (active); in [9] it was 16.4 µM (active). The IC50 in assay [10] is 0.551 µM (active).

Regarding `COc1ccc(-c2ccccc2[C@H]2[C@@H](C#N)N(C(=O)C3CCCC3)[C@H]2CO)cc1`, the AC50 in assay [11] was 0.479 µM (active); in assay [12] it was 63.3 µM (active); in assay [13] it was 0.346 µM (active); in assay [14] it was 0.368 µM (active); in assay [15], 1.78 µM (active); in [16], 1.11 µM (active).

`CC(C)=CCc1c(O)cc2oc3c(CC=C(C)C)c(O)c(O)c(CC=C(C)C)c3c(=O)c2c1O` [GARCINONE E]: the IC50 in [17] is > 49.8 µM (not active); in assay [20], 6.77 µM (active); in assay [21], > 20 µM (inactive); in assay [22], 3.46 µM (active); in assay [23], 2.79 µM (active); in [24] it was 4.65 µM (inactive). The EC50 in assay [18] was 4.78 µM (active); in assay [19], 3.02 µM (active); in assay [25], 0.813 µM (active).

In general, IC50 refers to the point on the concentration scale where inhibition reaches its midpoint. For orientation: CC50 means the concentration at which the toxic effect on the cells reaches its halfway point. The EC50 is the midpoint of the concentration-response curve. For orientation: AC50 means the concentration at which the activity in the assay is half-maximal.
